Laboratory results: article PMC8746705, “Comparison of Experimental Strategies to Study L-Type Amino Acid Transporter 1 (LAT1) Utilization by Ligands” (Molecules, 2021)

Assays:
LAT1 [1] = biological target: LAT1 (Mus musculus, UniProt Q9Z127); experiment: Concentration-dependent cellular uptake into BV2 cells, Eadie–Hofstee analysis, Transport Type 1 (LAT1); assay type: cell-based; conditions: for Km / Transport Type 1 (LAT1) Vmax: 1–200 µM, 30 min, BV2, Eadie–Hofstee, mean ± SD, n = 3; for Cellular uptake: BV2 cells
LAT1 (Mus musculus, UniProt Q9Z127), sequence (Q9Z127 whole entry): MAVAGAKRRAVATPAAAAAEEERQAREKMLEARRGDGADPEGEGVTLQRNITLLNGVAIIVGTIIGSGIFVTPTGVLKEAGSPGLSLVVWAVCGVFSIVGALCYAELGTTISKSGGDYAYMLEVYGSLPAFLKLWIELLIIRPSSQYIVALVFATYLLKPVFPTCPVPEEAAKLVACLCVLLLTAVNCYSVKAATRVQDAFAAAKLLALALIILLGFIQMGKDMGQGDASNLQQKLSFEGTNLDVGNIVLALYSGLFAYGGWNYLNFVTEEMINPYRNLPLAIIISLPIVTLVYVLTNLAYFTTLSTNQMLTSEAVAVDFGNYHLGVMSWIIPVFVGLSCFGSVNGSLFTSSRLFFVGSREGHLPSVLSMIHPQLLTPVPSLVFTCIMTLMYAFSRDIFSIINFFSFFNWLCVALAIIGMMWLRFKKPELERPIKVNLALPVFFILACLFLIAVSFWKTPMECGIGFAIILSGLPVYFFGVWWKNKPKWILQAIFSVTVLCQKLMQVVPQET
LAT1 (Mus musculus, UniProt Q9Z127), sequence (P10852 whole entry partner): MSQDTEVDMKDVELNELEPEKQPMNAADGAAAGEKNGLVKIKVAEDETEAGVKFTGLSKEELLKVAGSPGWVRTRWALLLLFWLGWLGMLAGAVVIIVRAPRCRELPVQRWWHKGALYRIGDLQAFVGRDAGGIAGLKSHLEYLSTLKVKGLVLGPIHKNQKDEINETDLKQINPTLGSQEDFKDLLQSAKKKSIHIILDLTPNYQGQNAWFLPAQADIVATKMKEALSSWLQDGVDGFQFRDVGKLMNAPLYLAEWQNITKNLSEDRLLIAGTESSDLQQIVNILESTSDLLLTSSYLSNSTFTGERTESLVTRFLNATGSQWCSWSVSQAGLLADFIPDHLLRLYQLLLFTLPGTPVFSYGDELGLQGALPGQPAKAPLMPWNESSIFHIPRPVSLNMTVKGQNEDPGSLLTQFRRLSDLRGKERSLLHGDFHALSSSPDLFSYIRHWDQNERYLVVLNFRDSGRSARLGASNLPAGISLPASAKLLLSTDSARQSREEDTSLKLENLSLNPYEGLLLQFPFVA
Summary of the method: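 Mouse BV2 microglia incubated 30 min at 37 °C in HBSS with compounds at 1–200 μM. Intracellular compound quantified by LC-MS/MS (positive ESI, C18 column) and normalized to total protein. Transport components resolved from Michaelis-Menten kinetics by Eadie–Hofstee analysis.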

[2] = test system: immortalized mouse microglia (BV2 cells); experiment: Cellular viability (resazurin / Alamar blue); assay type: cell-based; conditions: 72 h
Protocol: Immortalized microglia (BV2 cells) were seeded at the density of 10 × 10^3 cells/well onto collagen-coated 96-well plates. The cells were used for the proliferation experiments one day after seeding. The studied compounds (50 and 100 µM) were added into the growth medium and incubated for 3 days (the medium was replaced with a fresh one with studied compounds after daily measurements). Each day the cell viability was determined by the resazurin cell proliferation kit (MilliporeSigma, St. Louis, MO, USA), which is directly proportional to aerobic respiration and cellular metabolism of cells. The samples were measured fluorometrically by monitoring the increase in fluorescence at λex 560 nm and λem 590 nm with the Envision plate reader (EnVision, Perkin Elmer, Inc., Waltham, MA, USA). The cell viability was also followed by visualizing the wells with microscopy. The ability of compounds to inhibit the viability of the cells was expressed as percentages (%) compared to the untreated controls.

LAT1 [3] = experiment: Quantitative expression of LAT1 on the BV2 plasma membrane (LC-MS proteomics); assay type: cell-based, mouse; conditions: BV2 cells incubated 24 h; normalized to Na+/K+ATPase; compared to untreated control
Protocol: The protein expression levels of LAT1, in the plasma membrane fractions of BV2 cells were quantified using multiplexed MRM analysis according to the protocol described by Uchida et al.. First, the crude membrane fractions were isolated from three distinct sets of cell culture plates using Membrane Protein Extraction Kit (BioVision Incorporated, Milpitas, CA, USA) according to the manufacturer’s instructions. The protein content for each fraction was measured by Bio-Rad Protein Assay, based on the Bradford dye-binding method (EnVision, Perkin Elmer, Inc., Waltham, MA, USA). A total amount of 50 µg protein from each fraction was solubilized/denatured in 7 M guanidine hydrochloride, 0.5 M Tris-HCl and 10 mM EDTA-Na. The proteins were then reduced by dithiothreitol (1:50, w/w) and S-carboxymethylated by iodoacetamide (1:20, w/w). The alkylated proteins were precipitated by methanol/chloroform/water (4:1:3) and centrifuged at 18,000× g for 5 min at 4 °C. The pellet was resuspended in 6 M urea and mixed for 10 min at room temperature before the dilution with 0.1 M Tris-HCl (pH 8.5) to a final concentration of 1.2 M urea, and dissolved completely by intermittent sonication (Branson 3510, Danbury, CT, USA). The dissolved proteins were first digested with LysC (1/100, w/w) and 0.05% ProteaseMax (Promega Biotech AB, Nacka, Sweden) for 3 h at room temperature. Then, the samples were spiked with 10 µL (30 fmol) of the labelled peptides for absolute quantification (JPT Peptide Technologies GmbH, Berlin, Germany) (Table S2). The samples were incubated with (1/100, w/w) TPCK-Trypsin (Promega Biotech AB, Nacka, Sweden) for 18 h at 37 °C. The tryptic digestion was then quenched by adding 40 µL of 5% formic acid. The samples were then centrifuged at 18,000× g for 5 min at 4 °C, and the supernatants were transferred to vials for analysis.
The digested peptides were analyzed using an ultra-performance liquid chromatography system coupled with a triple quadrupole mass spectrometer with a heated electrospray ionization source in the positive mode (UPLC 1290 and MSD 6495, Agilent Technologies, Santa Clara, CA, USA). A total amount of 20 µL of the digested peptides (10 µg) was separated using AdvanceBio Peptide Map 2.1 × 250 mm, 2.7 μm column (Agilent Technologies, Santa Clara, CA, USA) and LC eluents of 0.1% formic acid in water (A) and acetonitrile (B). The peptides were eluted following a constant flow rate of 0.3 mL/min and a gradient of 2–7% B for 2 min, followed by 7–30% B for 48 min, 30–45% B for 3 min, and 45–80% B for 2.5 min before re-equilibrating the column again for 4.5 min. LAT1 was quantified based on the ratio between the light and heavy standard peptides, as described previously (Table S2). Data was acquired using Agilent MassHunter Workstation Acquisition (Agilent Technologies, Data Acquisition for Triple Quadrupole, version B.03.01) and processed by using Skyline software (version 20.1). The results were normalized to a housekeeping protein Na+/K+ATPase and expressed as fmol/µg of the total amount of protein in the samples.

[4] = higher concentrations (>100 µM)

Km (LAT1 [1]) | Transport Type 1 (LAT1) Vmax (LAT1 [1]) | Cellular uptake (LAT1 [1]) | SMILES | Effect on cell viability [2, 4] | LAT1 expression on the plasma membrane (LAT1 [3]) | Effect on cell viability ([2]; 50 µM)
41 ± 6 µM | 88 ± 9 pmol/mg/min | effectively transported into the cells | C[C@H](C(=O)Oc1cccc(C[C@H](N)C(=O)O)c1)c1cccc(C(=O)c2ccccc2)c1 [Compound 4] | started to impact the cell viability |  | 
9.3 ± 2.7 µM | 280 ± 65 pmol/mg/min | highest cellular uptake | COc1ccc2cc([C@H](C)C(=O)Oc3cccc(C[C@H](N)C(=O)O)c3)ccc2c1 [Compound 15] | started to impact the cell viability |  | minor effects on cell viability
2.1 ± 0.4 µM | 0.11 ± 0.01 pmol/mg/min |  | COc1cc(C=CC(=O)NCc2cccc(CC(N)C(=O)O)c2)ccc1O (stereo not shown) [Compound 5] |  | downregulated LAT1 expression | 

The next lines start with the molecule.

SMILES | Km (LAT1 [1]) | Transport Type 1 (LAT1) Vmax (LAT1 [1]) | Cellular uptake (LAT1 [1]) | Effect on cell viability [2, 4] | LAT1 expression on the plasma membrane (LAT1 [3]) | Effect on cell viability ([2]; 50 µM)
NC(Cc1cccc(C(=O)Oc2ccc(-c3ccc(-c4ccc5c(c4)COC5=O)s3)cc2)c1)C(=O)O (stereo not shown) [Compound 1] | 116 ± 72 µM | 750 ± 435 pmol/mg/min | highest cellular uptake | started to impact the cell viability |  | 
COc1cc(/C=C/C(=O)Oc2cccc(C[C@H](N)C(=O)O)c2)ccc1O [Compound 7] | 0.3 ± 0.1 µM | 0.09 ± 0.03 pmol/mg/min |  |  |  | 
C[C@H](C(=O)Nc1cccc(C[C@H](N)C(=O)O)c1)c1cccc(C(=O)c2ccccc2)c1 [Compound 2] | 0.8 ± 0.1 µM | 0.09 ± 0.01 pmol/mg/min |  | started to impact the cell viability | downregulated LAT1 expression | 
C[C@H](C(=O)Nc1cccc(C[C@H](N)C(=O)O)c1)c1ccc(-c2ccccc2)c(F)c1 [Compound 9] |  |  |  |  | did not have any effect on LAT1 expression | minor effects on cell viability
N[C@@H](Cc1cccc(NC(=O)c2ccccc2O)c1)C(=O)O [Compound 8] |  |  |  |  | did not have any effect on LAT1 expression | 
C[C@H](C(=O)Oc1cccc(C[C@H](N)C(=O)O)c1)c1ccc(-c2ccccc2)c(F)c1 [Compound 12] |  |  |  | started to impact the cell viability | did not have any effect on LAT1 expression | minor effects on cell viability
